Laboratory results from USRE48335E1, “Polymyxin derivatives as antimicrobial compounds” (priority 2014, dated 2020).
In brackets after ≈: the same amount, converted by molar mass. Positions of bridges follow the written chain, without caps; N, C: chain ends. Non-standard residues stand in square brackets, D forms with d. Residues, ends and D or L forms follow the SMILES beside them. *: point of attachment. Octanoyl(6-Me) = CCC(C)CCCCC(=O)*; X13 = O=C(Cc1ccc(Cl)cc1Cl)*; Nonanoyl = CCCCCCCCC(=O)*; Dab = NCC[C@H](N)C(=O)O; Abu = CC[C@H](N)C(=O)O; Dap = NC[C@H](N)C(=O)O

How the values were obtained:
Acinetobacter baumannii = test system: Acinetobacter baumannii
Procedure, shortened: (§1)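 Lipopeptide TFA salts are serially diluted in cation-adjusted Mueller-Hinton broth and inoculated per the CLSI M100-S18 broth microdilution method. The MIC is then recorded, with polymyxin B sulphate included as a control.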

Enterobacter cloacae = test system: Enterobacter cloacae
Procedure, shortened: as §1

Klebsiella pneumoniae = test system: Klebsiella pneumoniae
Procedure, shortened: as §1

Pseudomonas aeruginosa = test system: Pseudomonas aeruginosa
Procedure, shortened: as §1

P. aeruginosa ATCC 27853 = assay: In vivo efficacy in mouse blood infection model (neutropenic Swiss mice); settings: compound, free base 4 mg/kg intravenously 2 h after inoculation, blood at 4 h
Description: P. aeruginosa ATCC 27853, A. baumannii ATCC 19606 and K. pneumoniae FADDI-KP032 were subcultured on nutrient agar plates. One colony of each bacterial strain was dispersed in 10-mL CAMHB and incubated overnight. On day 2, an aliquot (0.2 mL) of each overnight culture suspension was dispersed in 20-mL CAMHB and incubated for 1.5-2.5 h for production of early log-phase growth bacterial culture. The bacteria in the early log-phase growth suspension were concentrated by centrifugation (3,220 g for 10 min) and re-suspended in sterile 0.9% saline for inoculation into mice. The bacterial cell concentration (colony forming unit [CFU]/mL) in saline was estimated by determining the optical density (OD) of the suspension at 600 nm, and confirmed by plating the suspension on nutrient agar plates. Swiss mice (22 to 28 g) were rendered neutropenic by injecting two doses of cyclophosphamide intraperitoneally, −4 day (150 mg/kg) and −1 day (100 mg/kg) prior to inoculation. Bloodstream infection was established by injecting intravenously 50 μL of early log-phase bacterial suspension (10^8-10^9 CFU/mL). The exact injection volume for each bacterial suspension was calculated based upon the OD value of the bacterial suspension and the desired inoculum for each isolate.
Solutions for administration of colistin, polymyxin B or the compounds were prepared at a concentration of 1 mg (free base) per mL in sterile 0.9% saline. At 2 h after inoculation, a mouse in the treatment groups was injected intravenously with one of the above solutions at 4 μL/g body weight (BW) (i.e. free base 4 mg/kg BW), while the same volume of saline was injected into the control mice. At 0 h or at 4 h after the administration of antibacterial drug or saline (control), animals were euthanised by inhalation of overdose isoflurane. The skin on the chest and fore-paws of each animal was thoroughly cleansed with 70% ethanol and Betadine®. The blood was collected via cardiac puncture using a 1-mL syringe rinsed with heparin (5,000 IU/mL), diluted serially in sterile 0.9% saline and plated on nutrient agar plates using a spiral plater.
The agar plates were incubated at 37° C. overnight. The bacterial colonies on the plate were counted and CFU/mL of the blood was calculated. The log10 CFU/mL of blood in each mouse was calculated. The in vivo activity of the compounds against the bacteria was calculated as the difference of the log10 CFU/mL values between the treated mice and the control mice at 4 h (Δ log=log10 (treated)CFU/mL−log10 (control)CFU/mL).
Any compound showing a decrease in bacterial loading (Δ log) of ≥2 at 4 h is considered to have good in vivo efficacy in this initial screening model.

SMILES | MIC (Acinetobacter baumannii) | MIC (Klebsiella pneumoniae) | MIC (Pseudomonas aeruginosa) | Δ log (Treated-Control at 4 h) (P. aeruginosa ATCC 27853) | Minimum inhibitory concentration, Ab A ATCC 17978 (Acinetobacter baumannii) | Minimum inhibitory concentration, Ab ATCC 19606 (Acinetobacter baumannii) | Minimum inhibitory concentration, Ab FADDI-AB034 (Acinetobacter baumannii) | Minimum inhibitory concentration, Ec FADDI-EC001 (Enterobacter cloacae) | Minimum inhibitory concentration, Ec FADDI-EC003 (Enterobacter cloacae) | Minimum inhibitory concentration, Ec FADDI-EC006 (Enterobacter cloacae) | Minimum inhibitory concentration, Pa ATCC 27853 (Pseudomonas aeruginosa) | Minimum inhibitory concentration, Pa FADDI-PA022 (Pseudomonas aeruginosa) | Minimum inhibitory concentration, Pa FADDI-PA025 (Pseudomonas aeruginosa) | other results
CCC(C)CCCCC(=O)N[C@@H](CCN)C(=O)N[C@H](C(=O)N[C@@H](CN)C(=O)N[C@H]1CCNC(=O)[C@H]([C@@H](C)O)NC(=O)[C@H](CCN)NC(=O)[C@H](CCN)NC(=O)[C@H](CC)NC(=O)[C@@H](CC(C)C)NC(=O)[C@H](CCN)NC1=O)[C@@H](C)O (stereo partly drawn) [Compound 139] ({Octanoyl(6-Me)}-[Dab]T[Dap][Dab][Dab][dL][Abu][Dab][Dab]T; lactam 4-C) | 0.5 µg/mL (≈ 0.443 µM) | <0.125 µg/mL | 1 µg/mL (≈ 0.887 µM) | −3.19 log10 CFU/mL | – | – | – | – | – | – | – | – | – | Minimum inhibitory concentration (MIC), Ab ATCC 17978 (Acinetobacter baumannii): 0.25 µg/mL (≈ 0.222 µM); Minimum inhibitory concentration (MIC), Ab ATCC 19606 (Acinetobacter baumannii): 0.5 µg/mL (≈ 0.443 µM); Minimum inhibitory concentration (MIC), Ab FADDI-AB034 (Acinetobacter baumannii): 0.25 µg/mL (≈ 0.222 µM); Minimum inhibitory concentration (MIC), Ec FADDI-EC001 (Enterobacter cloacae): 0.5 µg/mL (≈ 0.443 µM); Minimum inhibitory concentration (MIC), Ec FADDI-EC003 (Enterobacter cloacae): 0.25 µg/mL (≈ 0.222 µM); Minimum inhibitory concentration (MIC), Ec FADDI-EC006 (Enterobacter cloacae): 1 µg/mL (≈ 0.887 µM); Minimum inhibitory concentration (MIC), Pa ATCC 27853 (Pseudomonas aeruginosa): 1 µg/mL (≈ 0.887 µM); Minimum inhibitory concentration (MIC), Pa FADDI-PA022 (Pseudomonas aeruginosa): 2 µg/mL (≈ 1.77 µM); Minimum inhibitory concentration (MIC), Pa FADDI-PA025 (Pseudomonas aeruginosa): 1 µg/mL (≈ 0.887 µM)
CCCCCCCCC(=O)N[C@@H](CCN)C(=O)N[C@H](C(=O)N[C@@H](CN)C(=O)N[C@H]1CCNC(=O)[C@H]([C@@H](C)O)NC(=O)[C@H](CCN)NC(=O)[C@H](CCN)NC(=O)[C@H](CC)NC(=O)[C@@H](CC(C)C)NC(=O)[C@H](CCN)NC1=O)[C@@H](C)O [Compound 59] (Nonanoyl-[Dab]T[Dap][Dab][Dab][dL][Abu][Dab][Dab]T; lactam 4-C) | 2 µg/mL (≈ 1.77 µM) | <0.125 µg/mL | 1 µg/mL (≈ 0.887 µM) | −2.82 log10 CFU/mL | 1 µg/mL (≈ 0.887 µM) | 2 µg/mL (≈ 1.77 µM) | 0.5 µg/mL (≈ 0.443 µM) | 1 µg/mL (≈ 0.887 µM) | 1 µg/mL (≈ 0.887 µM) | 0.5 µg/mL (≈ 0.443 µM) | 1 µg/mL (≈ 0.887 µM) | 2 µg/mL (≈ 1.77 µM) | 2 µg/mL (≈ 1.77 µM) | –
CC(C)C[C@H]1NC(=O)[C@H](CCN)NC(=O)[C@@H](NC(=O)[C@H](CN)NC(=O)[C@@H](NC(=O)[C@H](CCN)NC(=O)Cc2ccc(Cl)cc2Cl)[C@@H](C)O)CCNC(=O)[C@H]([C@@H](C)O)NC(=O)[C@H](CCN)NC(=O)[C@H](CCN)NC(=O)[C@H]([C@@H](C)O)NC1=O [Compound 62] (X13-[Dab]T[Dap][Dab][Dab][dL]T[Dab][Dab]T; lactam 4-C) | 2 µg/mL (≈ 1.68 µM) | 0.25 µg/mL (≈ 0.21 µM) | 0.5 µg/mL (≈ 0.42 µM) | −2.69 log10 CFU/mL | 1 µg/mL (≈ 0.84 µM) | 2 µg/mL (≈ 1.68 µM) | 1 µg/mL (≈ 0.84 µM) | <0.125 µg/mL | <0.125 µg/mL | 0.25 µg/mL (≈ 0.21 µM) | 0.5 µg/mL (≈ 0.42 µM) | 1 µg/mL (≈ 0.84 µM) | 1 µg/mL (≈ 0.84 µM) | –
